For 12 molecules, Activity results are on record in ChEMBL document CHEMBL3877319, “Synthesis of Ofornine mimics from natural product l-vasicine as anti-hypertensive agents” (Bioorg Med Chem, 2017).

Type in all cases: functional
Assay [1] relates to Rattus norvegicus. The experiment in a line: Anti-hypertensive activity in Wistar rat assessed as systolic blood pressure at 10 mg/kg, iv after 30 mins (reference value: 110 to 124.6 mmHg).
Assay [2] relates to Rattus norvegicus. The assay is described as follows: Anti-hypertensive activity in Wistar rat assessed as systolic blood pressure at 10 mg/kg, iv after 120 mins (reference value: 110 to 124.6 mmHg).
Assay [3] has as its system Rattus norvegicus. The assay is described as follows: Anti-hypertensive activity in Wistar rat assessed as diastolic blood pressure at 10 mg/kg, iv after 30 mins (reference value: 77.15 to 94.4 mmHg).
For assay [4], the system named is Rattus norvegicus. The experiment in a line: Anti-hypertensive activity in Wistar rat assessed as systolic blood pressure at 10 mg/kg, iv after 180 mins (reference value: 110 to 124.6 mmHg).
The test system of assay [5] is Rattus norvegicus. The experiment in a line: Anti-hypertensive activity in Wistar rat assessed as systolic blood pressure at 10 mg/kg, iv after 150 mins (reference value: 110 to 124.6 mmHg).
The test system of assay [6] is Rattus norvegicus. The assay is described as follows: Anti-hypertensive activity in Wistar rat assessed as diastolic blood pressure at 10 mg/kg, iv after 60 mins (reference value: 77.15 to 94.4 mmHg).
For assay [7], the system named is Rattus norvegicus. The assay is described as follows: Anti-hypertensive activity in Wistar rat assessed as systolic blood pressure at 10 mg/kg, iv after 60 mins (reference value: 110 to 124.6 mmHg).
Assay [8] has as its system Rattus norvegicus. The experiment in a line: Anti-hypertensive activity in Wistar rat assessed as diastolic blood pressure at 10 mg/kg, iv after 5 mins (reference value: 77.15 to 94.4 mmHg).
In assay [9] the test system is Rattus norvegicus. The experiment in a line: Anti-hypertensive activity in Wistar rat assessed as systolic blood pressure at 10 mg/kg, iv after 5 mins (reference value: 110 to 124.6 mmHg).
For assay [10], the system named is Rattus norvegicus. The experiment in a line: Anti-hypertensive activity in Wistar rat assessed as systolic blood pressure at 10 mg/kg, iv after 15 mins (reference value: 110 to 124.6 mmHg).
For assay [11], the system named is Rattus norvegicus. The experiment in a line: Anti-hypertensive activity in Wistar rat assessed as diastolic blood pressure at 10 mg/kg, iv after 120 mins (reference value: 77.15 to 94.4 mmHg).
Assay [12] has as its system Rattus norvegicus. The experiment in a line: Anti-hypertensive activity in Wistar rat assessed as diastolic blood pressure at 10 mg/kg, iv after 15 mins (reference value: 77.15 to 94.4 mmHg).
Assay [13] has as its system Rattus norvegicus. The assay is described as follows: Anti-hypertensive activity in Wistar rat assessed as diastolic blood pressure at 10 mg/kg, iv after 180 mins (reference value: 77.15 to 94.4 mmHg).
Assay [14] relates to Rattus norvegicus. The experiment in a line: Anti-hypertensive activity in Wistar rat assessed as diastolic blood pressure at 10 mg/kg, iv after 150 mins (reference value: 77.15 to 94.4 mmHg).

Take `O[C@@H]1CCN(Cc2ccccc2)C1`: the Activity is on record as 119.3 mmHg in the assay on Rattus norvegicus [1]; 112.3 mmHg in the assay on Rattus norvegicus [2]; 70.89 mmHg in the assay with Rattus norvegicus [3]; 118.9 mmHg with Rattus norvegicus [4]; 114.6 mmHg in the assay on Rattus norvegicus [5]; 77.25 mmHg with Rattus norvegicus [6]. In addition, the Activity in the assay with Rattus norvegicus [7] stood at 121.4 mmHg; in the assay with Rattus norvegicus [8], 52.65 mmHg; with Rattus norvegicus [9] it was 107.9 mmHg; with Rattus norvegicus [10], 116.4 mmHg; with Rattus norvegicus [11] it was 74.19 mmHg; with Rattus norvegicus [12] it was 57.86 mmHg. The values for the Activity with Rattus norvegicus [13] and in the assay with Rattus norvegicus [14] were 83.15 mmHg and 78.62 mmHg, respectively.
In the case of `[N-]=[N+]=N[C@@H]1CCN(C(=O)c2ccccc2Nc2ccncc2)C1`, the Activity is recorded as 108.4 mmHg with Rattus norvegicus [1]; 115.6 mmHg in the assay with Rattus norvegicus [2]; 79.7 mmHg in the assay on Rattus norvegicus [3]; 115.3 mmHg with Rattus norvegicus [4]; 81.4 mmHg in the assay with Rattus norvegicus [6]; 111.6 mmHg in the assay with Rattus norvegicus [7]. The Activity was found to be 59.8 mmHg with Rattus norvegicus [8]; 86.15 mmHg with Rattus norvegicus [9]; 97 mmHg in the assay on Rattus norvegicus [10]; 80.3 mmHg in the assay on Rattus norvegicus [11]; 67.75 mmHg with Rattus norvegicus [12]; 77.3 mmHg in the assay with Rattus norvegicus [14].
Consider `CCCCCc1cn([C@@H]2CCN(C(=O)c3ccccc3Nc3ccncc3)C2)nn1`, for which the Activity in the assay with Rattus norvegicus [1] is 103.8 mmHg; with Rattus norvegicus [2] it was 109.8 mmHg; in the assay with Rattus norvegicus [3] it was 77.6 mmHg; with Rattus norvegicus [4], 117.6 mmHg; in the assay on Rattus norvegicus [5], 114.9 mmHg; with Rattus norvegicus [6], 80.2 mmHg. Besides, the Activity in the assay on Rattus norvegicus [7] worked out at 105.4 mmHg; with Rattus norvegicus [8], 73.2 mmHg; in the assay on Rattus norvegicus [9], 96.7 mmHg; in the assay on Rattus norvegicus [10], 101.7 mmHg; in the assay with Rattus norvegicus [11], 80.5 mmHg; with Rattus norvegicus [12], 80.5 mmHg. Further, the values for the Activity in the assay on Rattus norvegicus [13] and with Rattus norvegicus [14] were 85.4 mmHg and 81.9 mmHg, respectively.
As to `O=C(c1ccccc1Nc1ccncc1)N1CCCCC1` [OFORNINE], the Activity in the assay on Rattus norvegicus [1] was 89.5 mmHg; in the assay on Rattus norvegicus [2] it was 90.5 mmHg; in the assay on Rattus norvegicus [3], 62.8 mmHg; in the assay on Rattus norvegicus [4], 117 mmHg; in the assay on Rattus norvegicus [5], 113.8 mmHg; in the assay with Rattus norvegicus [6], 64.05 mmHg. The Activity in the assay with Rattus norvegicus [7] is 88.6 mmHg; with Rattus norvegicus [8], 53.3 mmHg; in the assay on Rattus norvegicus [9] it was 83.3 mmHg; in the assay on Rattus norvegicus [10] it was 89.45 mmHg; in the assay on Rattus norvegicus [11] it was 64.5 mmHg; with Rattus norvegicus [12], 61 mmHg. Further, the Activity is listed as 90.8 mmHg in the assay with Rattus norvegicus [13] and 77.9 mmHg in the assay on Rattus norvegicus [14].
In the case of `C[Si](C)(C)O[C@@H]1CCNC1`, the Activity amounted to 119.9 mmHg in the assay on Rattus norvegicus [1]; 118.5 mmHg in the assay on Rattus norvegicus [2]; 87.98 mmHg in the assay on Rattus norvegicus [3]; 121.6 mmHg in the assay on Rattus norvegicus [4]; 122.4 mmHg in the assay with Rattus norvegicus [5]; 83.9 mmHg in the assay with Rattus norvegicus [6]. For the same molecule, the Activity in the assay on Rattus norvegicus [7] was found to be 117.6 mmHg; in the assay with Rattus norvegicus [8], 84.74 mmHg; in the assay with Rattus norvegicus [9], 119.9 mmHg; with Rattus norvegicus [10], 119.7 mmHg; in the assay with Rattus norvegicus [11], 89.49 mmHg; in the assay with Rattus norvegicus [12], 85.42 mmHg. Further, the Activity with Rattus norvegicus [13] was determined as 84.75 mmHg; in the assay on Rattus norvegicus [14], 88.4 mmHg.
With `O[C@H]1CCN(Cc2ccccc2Nc2ccncc2)C1`, the Activity with Rattus norvegicus [1] is 120.6 mmHg; in the assay on Rattus norvegicus [2], 118.2 mmHg; with Rattus norvegicus [3], 75.5 mmHg; with Rattus norvegicus [4], 124.4 mmHg; in the assay on Rattus norvegicus [5], 122.9 mmHg; in the assay with Rattus norvegicus [6] it was 81.18 mmHg. The Activity in the assay with Rattus norvegicus [7] is reported as 115.7 mmHg; in the assay on Rattus norvegicus [8], 77.06 mmHg; with Rattus norvegicus [9] it was 120.4 mmHg; in the assay on Rattus norvegicus [10] it was 119.9 mmHg; in the assay with Rattus norvegicus [11] it was 75.97 mmHg; in the assay with Rattus norvegicus [12] it was 73.74 mmHg. Further, the results for the Activity in the assay on Rattus norvegicus [13] and in the assay on Rattus norvegicus [14] were 83.32 mmHg and 76.6 mmHg, respectively.
As to `CCCc1cn([C@@H]2CCN(C(=O)c3ccccc3Nc3ccncc3)C2)nn1`, the Activity in the assay with Rattus norvegicus [1] was 118.8 mmHg; with Rattus norvegicus [2], 118.1 mmHg; with Rattus norvegicus [3], 78.5 mmHg; in the assay with Rattus norvegicus [4], 118.8 mmHg; with Rattus norvegicus [5], 119.9 mmHg; in the assay on Rattus norvegicus [6], 83.7 mmHg. For the same molecule, the Activity is given as 114.8 mmHg in the assay on Rattus norvegicus [7]; 44.5 mmHg with Rattus norvegicus [8]; 82.7 mmHg in the assay with Rattus norvegicus [9]; 86.8 mmHg in the assay on Rattus norvegicus [10]; 82.7 mmHg in the assay on Rattus norvegicus [11]; 53.4 mmHg in the assay on Rattus norvegicus [12]. In addition, the Activity with Rattus norvegicus [13] came out at 84.5 mmHg; in the assay with Rattus norvegicus [14], 81.5 mmHg.
Regarding `CCCCCCc1ccc(-c2cn([C@@H]3CCN(C(=O)c4ccccc4Nc4ccncc4)C3)nn2)cc1`, the Activity in the assay on Rattus norvegicus [1] amounted to 111.6 mmHg; in the assay with Rattus norvegicus [2], 118.9 mmHg; in the assay with Rattus norvegicus [3], 83.6 mmHg; in the assay on Rattus norvegicus [4] it was 119.9 mmHg; in the assay on Rattus norvegicus [5], 118.7 mmHg; in the assay on Rattus norvegicus [6] it was 83.25 mmHg. The Activity was found to be 111.9 mmHg in the assay with Rattus norvegicus [7]; 74.8 mmHg in the assay with Rattus norvegicus [8]; 94.4 mmHg in the assay with Rattus norvegicus [9]; 104.9 mmHg in the assay on Rattus norvegicus [10]; 91.75 mmHg in the assay with Rattus norvegicus [11]; 81.7 mmHg in the assay on Rattus norvegicus [12]. For the same molecule, the Activity with Rattus norvegicus [13] came out at 91 mmHg; with Rattus norvegicus [14] it was 92.8 mmHg.
In the case of `Nc1ccccc1C(=O)N1CCC(O)C1` (single isomer, unassigned), the Activity in the assay on Rattus norvegicus [1] is on record as 124.3 mmHg; with Rattus norvegicus [2] it was 118.8 mmHg; with Rattus norvegicus [3], 82.62 mmHg; in the assay with Rattus norvegicus [4] it was 123.1 mmHg; in the assay on Rattus norvegicus [5], 121.4 mmHg; with Rattus norvegicus [6], 82.62 mmHg. Also, the Activity in the assay on Rattus norvegicus [7] came out at 119.5 mmHg; in the assay on Rattus norvegicus [8], 80.42 mmHg; with Rattus norvegicus [9] it was 107.8 mmHg; in the assay on Rattus norvegicus [10], 123.4 mmHg; in the assay on Rattus norvegicus [11] it was 79.57 mmHg; with Rattus norvegicus [12], 86.88 mmHg. In addition, the Activity in the assay on Rattus norvegicus [13] stood at 86.45 mmHg; with Rattus norvegicus [14], 79.95 mmHg.
For `O=C(c1ccccc1-n1cc(-c2ccc(F)cc2)nn1)N1CC[C@@H](O)C1`, the Activity is on record as 118.9 mmHg in the assay with Rattus norvegicus [1]; 121.6 mmHg in the assay on Rattus norvegicus [2]; 77.9 mmHg in the assay on Rattus norvegicus [3]; 121.5 mmHg in the assay with Rattus norvegicus [4]; 121.8 mmHg with Rattus norvegicus [5]; 95 mmHg in the assay with Rattus norvegicus [6]. The Activity was found to be 122.4 mmHg in the assay on Rattus norvegicus [7]; 76.5 mmHg in the assay with Rattus norvegicus [8]; 103.3 mmHg in the assay with Rattus norvegicus [9]; 120.1 mmHg with Rattus norvegicus [10]; 88 mmHg in the assay with Rattus norvegicus [11]; 74.8 mmHg with Rattus norvegicus [12]. The Activity in the assay on Rattus norvegicus [13] is reported as 90.8 mmHg; in the assay with Rattus norvegicus [14], 88.8 mmHg.
With `O=C(c1ccccc1Nc1ccncc1)N1CC[C@@H](n2cc(-c3ccc(F)cc3)nn2)C1`, the Activity with Rattus norvegicus [1] came to 108.6 mmHg; in the assay with Rattus norvegicus [2], 122.6 mmHg; in the assay with Rattus norvegicus [3], 84.63 mmHg; in the assay with Rattus norvegicus [4], 128.9 mmHg; in the assay with Rattus norvegicus [5], 124.6 mmHg; in the assay on Rattus norvegicus [6] it was 84.8 mmHg. In addition, the Activity in the assay with Rattus norvegicus [7] is on record as 117.6 mmHg; in the assay with Rattus norvegicus [8] it was 42.9 mmHg; with Rattus norvegicus [9] it was 46.6 mmHg; in the assay on Rattus norvegicus [10], 106.2 mmHg; in the assay on Rattus norvegicus [11], 86.3 mmHg; in the assay with Rattus norvegicus [12], 73.8 mmHg. The Activity stood at 90.58 mmHg in the assay on Rattus norvegicus [13] and 90.3 mmHg in the assay with Rattus norvegicus [14].
For `CCCCCc1ccc(-c2cn([C@@H]3CCN(C(=O)c4ccccc4Nc4ccncc4)C3)nn2)cc1`, the Activity in the assay with Rattus norvegicus [1] came to 108.4 mmHg; in the assay on Rattus norvegicus [2] it was 115.6 mmHg; in the assay with Rattus norvegicus [3], 79.7 mmHg; in the assay with Rattus norvegicus [4], 115.3 mmHg; in the assay with Rattus norvegicus [6], 81.4 mmHg; in the assay on Rattus norvegicus [7], 111.6 mmHg. In addition, the Activity was found to be 59.8 mmHg in the assay on Rattus norvegicus [8]; 86.15 mmHg with Rattus norvegicus [9]; 97 mmHg in the assay with Rattus norvegicus [10]; 80.3 mmHg in the assay with Rattus norvegicus [11]; 67.75 mmHg in the assay with Rattus norvegicus [12]; 77.3 mmHg in the assay with Rattus norvegicus [14].
